In patent US9732087B2, “Diamino-pyridine, pyrimidine, and pyridazine modulators of the histamine H4 receptor” (JANSSEN PHARMACEUTICA NV, priority 2008, dated 2017):
Structures can show the parent of a compound that is named as a salt.

What follows are compounds tested against human H4 receptor (Homo sapiens (Human), UniProt Q9H3N8) (assay: Binding assay on recombinant human histamine H4 receptor ([3H]histamine competition, SK-N-MC cell membranes)). Details: Cell Harvester Ki (nM).
Protocol: Binding Assay on Recombinant Human Histamine H4Receptor
Cell pellets from SK-N-MC cells stably or transiently transfected with human H4 receptor (NCBI accession No. AF312230) were used for the binding assays. Cell pellets were homogenized in 50 mM Tris/5 mM EDTA buffer and supernatants from an 800 g spin were collected and recentrifuged at 30,000 g for 30 min. Pellets were rehomogenized in 50 mM Tris/5 mM EDTA buffer. […] Membranes were harvested by rapid filtration using the 96 well Brandel system (Table 1, Brandel) or a cell harvester (Table 1, Cell Harvester) using a Whatman GF/C filter or filter plates treated with 0.5% polyethylenimine (PEI), and washed 4 times with ice-cold 50 mM Tris/5 mM EDTA buffer. Filters were then dried, mixed with scintillant and radioactive counts were determined. […] Where activity is shown as greater than (>) a particular value, the value is the highest concentration tested.

human H4 receptor, sequence (Q9H3N8 whole entry): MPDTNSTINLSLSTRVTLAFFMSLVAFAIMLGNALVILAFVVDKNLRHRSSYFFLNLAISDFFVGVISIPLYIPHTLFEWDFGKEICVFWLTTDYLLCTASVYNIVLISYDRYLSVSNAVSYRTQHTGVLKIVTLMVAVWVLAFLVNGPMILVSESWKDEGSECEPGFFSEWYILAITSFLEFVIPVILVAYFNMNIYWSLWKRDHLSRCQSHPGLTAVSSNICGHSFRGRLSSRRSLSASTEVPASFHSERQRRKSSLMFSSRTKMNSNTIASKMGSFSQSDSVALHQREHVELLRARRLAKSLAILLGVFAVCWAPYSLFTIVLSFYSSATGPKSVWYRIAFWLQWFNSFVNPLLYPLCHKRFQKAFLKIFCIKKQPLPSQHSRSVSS

`CCCCNc1cc(N2CCNCC2)ccn1` [Example 36, N-Butyl-4-piperazin-1-ylpyridin-2-amine] was tested, and the Ki was 104 nM.

Same assay, conditions: membranes harvested with 96 well Brandel system; [3H]histamine 10 nM; average of results; read-out: Brandel Ki

`CN[C@@H]1CCN(c2ccnc(NC3CC4CCC3C4)c2)C1` (stereo partly drawn) [Example 1, Bicyclo[2.2.1]hept-2-yl[4-((3R)-3-methylamino-pyrrolidin-1-yl)-pyridin-2-yl]amine dihydrochloride] and `CN[C@@H]1CCN(c2ccnc(N[C@H]3C[C@H]4C[C@@H]([C@@H]3C)C4(C)C)c2)C1` [Example 9, 4-[(3R)-3-(Methylamino)pyrrolidin-1-yl]-N-[(1S,2S,3S,5R)-2,6,6-trimethylbicyclo[3.1.1]hept-3-yl]pyridin-2-amine] are the same in Ki: 1 nM for the first, 1 nM for the second.

First: CN[C@@H]1CCN(c2ccnc(N[C@@H]3C[C@@H]4C[C@H]([C@H]3C)C4(C)C)c2)C1 [Example 10, 4-[(3R)-3-(Methylamino)pyrrolidin-1-yl]-N-[(1R,2R,3R,5S)-2,6,6-trimethylbicyclo[3.1.1]hept-3-yl]pyridin-2-amine]
Second: c1cc(N2CCNCC2)cc(NCC2CC2)n1 [Example 35, N-(Cyclopropylmethyl)-4-piperazin-1-ylpyridin-2-amine]
The Ki of the first is 51-fold lower: 0.5 nM for the first, 25.6 nM for the second. The first binds more tightly here.

`CC(C)CNc1cc(N2CCNCC2)ccn1` [Example 19, N-(2-Methylpropyl)-4-piperazin-1-ylpyridin-2-amine dihydrochloride] and `CC(C)CNc1cc(N2CCN(C)CC2)ccn1` [Example 21, 4-(4-Methylpiperazin-1-yl)-N-(2-methylpropyl)pyridin-2-amine] are within 1.5-fold of each other in Ki: 45.3 nM for the first, 51.4 nM for the second.

Going from `N[C@@H]1CCN(c2ccnc(NC3CCOCC3)n2)C1` [Example 30, 4-[(3R)-3-Aminopyrrolidin-1-yl]-N-(tetrahydro-2H-pyran-4-yl)pyrimidin-2-amine] to `CC(C)CNc1nccc(N2CCN(C)CC2)n1` [Example 31, Isobutyl-[4-(4-methyl-piperazin-1-yl)-pyrimidin-2-yl]-amine], the Ki rises from 42.4 nM to 69 nM (1.6-fold).

Same assay, conditions: membranes harvested with cell harvester; [3H]histamine 10 nM; average of results; read-out: Cell Harvester Ki

Going from `C[C@H]1[C@@H](Nc2nccc(N3CCNCC3)n2)C[C@@H]2C[C@H]1C2(C)C` (stereo in doubt) [Example 71, (4-Piperazin-1-yl-pyrimidin-2-yl)-(2,6,6-trimethyl-bicyclo[3.1.1]hept-3-yl)-amine] to `CN[C@@H]1CCN(c2ccnc(N[C@H]3C[C@H]4C[C@@H]([C@@H]3C)C4(C)C)c2)C1` [Example 9, 4-[(3R)-3-(Methylamino)pyrrolidin-1-yl]-N-[(1S,2S,3S,5R)-2,6,6-trimethylbicyclo[3.1.1]hept-3-yl]pyridin-2-amine], the Ki falls from 377 nM to 0.4 nM (940-fold).

`CC(C)(CO)CNc1nccc(N2CC3CCN[C@H]3C2)n1` (stereo in doubt) [Example 148, 3-({4-[(3aR,6aR)-Hexahydropyrrolo[3,4-b]pyrrol-5(1H)-yl]pyrimidin-2-yl}amino)-2,2-dimethylpropan-1-ol] and `OCCCNc1nccc(N2CC3CCN[C@H]3C2)n1` (stereo in doubt) [Example 159, 3-({4-[(3aR,6aR)-Hexahydropyrrolo[3,4-b]pyrrol-5(1H)-yl]pyrimidin-2-yl}amino)propan-1-ol] are within 1.5-fold of each other in Ki: 250 nM for the first, 266 nM for the second.

Going from `NC1CCN(c2cnnc(NCC3CC4CCC3C4)c2)C1` (stereo in doubt) [Example 304, 5-[(3S)-3-Aminopyrrolidin-1-yl]-N-(bicyclo[2.2.1]hept-2-ylmethyl)pyridazin-3-amine] to `NC1CCN(c2cnnc(NCCCO)c2)C1` (stereo in doubt) [Example 338, 3-({5-[(3S)-3-Aminopyrrolidin-1-yl]pyridazin-3-yl}amino)propan-1-ol], the Ki rises from 310 nM to > 10000 nM. The first binds more tightly here.

Compared with `CNC1CCN(c2cnnc(NCc3ccccn3)c2)C1` (stereo in doubt) [Example 402, 5-[(3S)-3-(Methylamino)pyrrolidin-1-yl]-N-(pyridin-2-ylmethyl)pyridazin-3-amine], `CN[C@@H]1CCN(c2ccnc(NCc3ccccc3)c2)C1` [Example 11, N-Benzyl-4-[(3R)-3-(methylamino)pyrrolidin-1-yl]pyridin-2-amine] is lower in Ki: > 10000 nM for the first, 12.9 nM for the second. The second binds more tightly here.

Going from `CN[C@@H]1CCN(c2ccnc(NC3CC4CCC3C4)c2)C1` (stereo partly drawn) [Example 1, Bicyclo[2.2.1]hept-2-yl[4-((3R)-3-methylamino-pyrrolidin-1-yl)-pyridin-2-yl]amine dihydrochloride] to `CN[C@@H]1CCN(c2ccnc(NC3CC3)c2)C1` [Example 8, N-Cyclopropyl-4-[(3R)-3-(methylamino)pyrrolidin-1-yl]pyridin-2-amine dihydrochloride], the Ki rises from 0.5 nM to 10.6 nM (21-fold). The first binds more tightly here.

Going from `CN[C@@H]1CCN(c2ccnc(N[C@@H]3CCOC3)c2)C1` [Example 5, 4-[(3R)-3-(Methylamino)pyrrolidin-1-yl]-N-[(3R)-tetrahydrofuran-3-yl]pyridin-2-amine dihydrochloride] to `CN[C@@H]1CCN(c2ccnc(NCC3CCCO3)c2)C1` (stereo partly drawn) [Example 6, 4-[(3R)-3-(Methylamino)pyrrolidin-1-yl]-N-[tetrahydrofuran-2-ylmethyl]pyridin-2-amine dihydrochloride], the Ki rises from 8.9 nM to 35.1 nM (3.9-fold). The first binds more tightly here.

Compared with `CN[C@@H]1CCN(c2ccnc(NCc3ccc(F)cc3)c2)C1` [Example 7, N-(4-Fluorobenzyl)-4-[(3R)-3-(methylamino)pyrrolidin-1-yl]pyridin-2-amine dihydrochloride], `CN[C@@H]1CCN(c2ccnc(Nc3ccccc3)c2)C1` [Example 33, 4-[(3R)-3-(Methylamino)pyrrolidin-1-yl]-N-phenylpyridin-2-amine] is 15-fold lower in Ki: 13.7 nM for the first, 0.9 nM for the second.

First: CN[C@@H]1CCN(c2ccnc(N[C@@H]3C[C@@H]4C[C@H]([C@H]3C)C4(C)C)c2)C1 [Example 10, 4-[(3R)-3-(Methylamino)pyrrolidin-1-yl]-N-[(1R,2R,3R,5S)-2,6,6-trimethylbicyclo[3.1.1]hept-3-yl]pyridin-2-amine]
Second: CNC1CN(c2ccnc(NCC(C)C)c2)C1 [Example 34, 4-[3-(Methylamino)azetidin-1-yl]-N-(2-methylpropyl)pyridin-2-amine]
The Ki of the first is 36-fold lower: 0.5 nM for the first, 18.1 nM for the second.

Compared with `CC(C)Nc1cc(N2CC[C@@H](N)C2)ccn1` [Example 13, 4-[(3R)-3-Aminopyrrolidin-1-yl]-N-(1-methylethyl)pyridin-2-amine], `CC(C)CNc1cc(N2CC[C@H](N)C2)ccn1` [Example 14, 4-[(3S)-3-Aminopyrrolidin-1-yl]-N-(2-methylpropyl)pyridin-2-amine] is 4.4-fold higher in Ki: 26.2 nM for the first, 114 nM for the second.

First: c1cc(N2CCNCC2)cc(NC2CCCC2)n1 [Example 16, N-Cyclopentyl-4-piperazin-1-ylpyridin-2-amine]
Second: c1cc(N2CCNCC2)cc(NCC2CC2)n1 [Example 35, N-(Cyclopropylmethyl)-4-piperazin-1-ylpyridin-2-amine]
The Ki of the first is 1.5-fold lower: 48.2 nM for the first, 74.7 nM for the second.

First: CCCNc1cc(N2CCNCC2)ccn1 [Example 17, 4-Piperazin-1-yl-N-propylpyridin-2-amine dihydrochloride]
Second: COCCNc1cc(N2CCNCC2)ccn1 [Example 37, N-(2-Methoxyethyl)-4-piperazin-1-ylpyridin-2-amine]
The Ki of the first is 1.5-fold higher: 375 nM for the first, 247 nM for the second.

Compared with `c1ccc(CNc2cc(N3CCNCC3)ccn2)cc1` [Example 18, N-Benzyl-4-piperazin-1-ylpyridin-2-amine dihydrochloride], `c1ccc(Nc2cc(N3CCNCC3)ccn2)cc1` [Example 38, N-Phenyl-4-piperazin-1-ylpyridin-2-amine] is 1.9-fold lower in Ki: 527 nM for the first, 275 nM for the second. The second binds more tightly here.

Compared with `CC(C)CNc1nccc(N2CC[C@@H](N)C2)n1` [Example 23, 4-[(3R)-3-Aminopyrrolidin-1-yl]-N-(2-methylpropyl)pyrimidin-2-amine], `CC(C)(O)CNc1nccc(N2CC[C@@H](N)C2)n1` [Example 27, 1-({4-[(3R)-3-Aminopyrrolidin-1-yl]pyrimidin-2-yl}amino)-2-methylpropan-2-ol] is 25-fold higher in Ki: 2.7 nM for the first, 67.7 nM for the second. The first binds more tightly here.

Compared with `N[C@@H]1CCN(c2ccnc(NCC3CC3)n2)C1` [Example 24], `N[C@@H]1CCN(c2ccnc(NC3CCC3)n2)C1` [Example 28, 4-[(3R)-3-Aminopyrrolidin-1-yl]-N-cyclobutylpyrimidin-2-amine] is 2.5-fold higher in Ki: 3.32 nM for the first, 8.4 nM for the second.

Compared with `N[C@@H]1CCN(c2ccnc(NC3CCCC3)n2)C1` [Example 25, 4-[(3R)-3-Aminopyrrolidin-1-yl]-N-cyclopentylpyrimidin-2-amine], `N[C@@H]1CCN(c2ccnc(NC3CCOCC3)n2)C1` [Example 30, 4-[(3R)-3-Aminopyrrolidin-1-yl]-N-(tetrahydro-2H-pyran-4-yl)pyrimidin-2-amine] is 24-fold higher in Ki: 3.8 nM for the first, 91.8 nM for the second.

`N[C@@H]1CCN(c2ccnc(N[C@@H]3CCOC3)n2)C1` [Example 29, 4-[(3R)-3-Aminopyrrolidin-1-yl]-N-[(3R)-tetrahydrofuran-3-yl]pyrimidine-2-amine] and `CC(C)CNc1nccc(N2CCN(C)CC2)n1` [Example 31, Isobutyl-[4-(4-methyl-piperazin-1-yl)-pyrimidin-2-yl]-amine] are within 1.5-fold of each other in Ki: 58.5 nM for the first, 76.9 nM for the second.

Same assay, conditions: read-out: Brandel Ki

`CCCCNc1cc(N2CCNCC2)ccn1` [Example 36, N-Butyl-4-piperazin-1-ylpyridin-2-amine] gave a Ki of 91.3 nM.
